Measurements published in ChEMBL document CHEMBL1151757, “Synthesis, radiosynthesis, and biological evaluation of fluorine-18-labeled 2beta-carbo(fluoroalkoxy)-3beta-(3'-((Z)-2-haloethenyl)phenyl)nortropanes: candidate radioligands for in vivo imaging of the serotonin transporter with positron emission tomography” (J Med Chem, 2008).

Test system: not listed separately
Experiment: Ratio of drug uptake in pons to cerebellum in anesthetized cynomolgus monkey after 145 mins postinjection
Assay type: ADME, organism-based, Macaca fascicularis
Details: in vivo

SMILES | Ratio
O=C(OCC[18F])C1C2CCC(CC1c1ccc(/C=C\I)cc1)N2 (stereo not given) | 2.3

Test system: Putamen
Experiment: Drug uptake in anesthetized cynomolgus monkey brain putamen after 205 mins postinjection
Assay type: ADME, organism-based, Macaca fascicularis
Details: in vivo

SMILES | Drug uptake
O=C(OCC[18F])C1C2CCC(CC1c1ccc(/C=C\I)cc1)N2 (stereo not given) | 3.94

Test system: Thalamus
Experiment: Drug uptake in anesthetized cynomolgus monkey brain thalamus after 12.5 mins postinjection
Assay type: ADME, organism-based, Macaca fascicularis
Design: unit not given here
Details: in vivo

SMILES | Drug uptake
O=C(OCC[18F])C1C2CCC(CC1c1ccc(/C=C\I)cc1)N2 (stereo not given) | 2.29

Test system: Putamen
Experiment: Drug uptake in anesthetized cynomolgus monkey brain putamen after 6.5 mins postinjection
Assay type: ADME, organism-based, Macaca fascicularis
Design: unit not given here
Details: in vivo

SMILES | Drug uptake
O=C(OCC[18F])C1C2CCC(CC1c1ccc(/C=C\I)cc1)N2 (stereo not given) | 1.89

Test system: Midbrain
Experiment: Drug uptake in anesthetized cynomolgus monkey brain midbrain after 125 mins postinjection
Assay type: ADME, organism-based, Macaca fascicularis
Design: unit not given here
Details: in vivo

SMILES | Drug uptake
O=C(OCC[18F])C1C2CCC(CC1c1ccc(/C=C\I)cc1)N2 (stereo not given) | 4.62

Test system: Pons
Experiment: Drug uptake in anesthetized cynomolgus monkey brain pons after 195 mins postinjection
Assay type: ADME, organism-based, Macaca fascicularis
Details: in vivo, 3.25 h

SMILES | Drug uptake
O=C(OCC[18F])C1C2CCC(CC1c1ccc(/C=C\I)cc1)N2 (stereo not given) | 3.42

Test system: Caudate
Experiment: Drug uptake in anesthetized cynomolgus monkey brain caudate after 185 mins postinjection
Assay type: ADME, organism-based, Macaca fascicularis, Caudate nucleus
Details: in vivo

SMILES | Drug uptake
O=C(OCC[18F])C1C2CCC(CC1c1ccc(/C=C\I)cc1)N2 (stereo not given) | 2.97

Test system: Medulla
Experiment: Drug uptake in anesthetized cynomolgus monkey brain medulla after 75 mins postinjection
Assay type: ADME, organism-based, Macaca fascicularis
Details: in vivo, 1.25 h

SMILES | Drug uptake
O=C(OCC[18F])C1C2CCC(CC1c1ccc(/C=C\I)cc1)N2 (stereo not given) | 3.82

Test system: not listed separately
Experiment: Ratio of drug uptake in pons to cerebellum in anesthetized cynomolgus monkey after 95 mins postinjection
Assay type: ADME, organism-based, Macaca fascicularis
Details: in vivo

SMILES | Ratio
O=C(OCC[18F])C1C2CCC(CC1c1ccc(/C=C\I)cc1)N2 (stereo not given) | 1.6

Test system: not listed separately
Experiment: Ratio of drug uptake in putamen to cerebellum in anesthetized cynomolgus monkey after 35 mins postinjection
Assay type: ADME, organism-based, Macaca fascicularis
Details: in vivo

SMILES | Ratio
O=C(OCC[18F])C1C2CCC(CC1c1ccc(/C=C\I)cc1)N2 (stereo not given) | 1.4

Test system: Midbrain
Experiment: Drug uptake in anesthetized cynomolgus monkey brain midbrain after 9.5 mins postinjection
Assay type: ADME, organism-based, Macaca fascicularis
Design: unit not given here
Details: in vivo

SMILES | Drug uptake
O=C(OCC[18F])C1C2CCC(CC1c1ccc(/C=C\I)cc1)N2 (stereo not given) | 2.2

Test system: not listed separately
Experiment: Ratio of drug uptake in pons to cerebellum in anesthetized cynomolgus monkey after 1.5 mins postinjection
Assay type: ADME, organism-based, Macaca fascicularis
Details: in vivo, 0.025 h

SMILES | Ratio
O=C(OCC[18F])C1C2CCC(CC1c1ccc(/C=C\I)cc1)N2 (stereo not given) | 0.6

Test system: not listed separately
Experiment: Ratio of drug uptake in occipital lobe to cerebellum in anesthetized cynomolgus monkey after 18.5 mins postinjection
Assay type: ADME, organism-based, Macaca fascicularis
Details: in vivo

SMILES | Ratio
O=C(OCC[18F])C1C2CCC(CC1c1ccc(/C=C\I)cc1)N2 (stereo not given) | 0.7

Test system: not listed separately
Experiment: Ratio of drug uptake in pons to cerebellum in anesthetized cynomolgus monkey after 215 mins postinjection
Assay type: ADME, organism-based, Macaca fascicularis
Details: in vivo

SMILES | Ratio
O=C(OCC[18F])C1C2CCC(CC1c1ccc(/C=C\I)cc1)N2 (stereo not given) | 2.9

Test system: Medulla
Experiment: Drug uptake in anesthetized cynomolgus monkey brain medulla after 215 mins postinjection
Assay type: ADME, organism-based, Macaca fascicularis
Details: in vivo

SMILES | Drug uptake
O=C(OCC[18F])C1C2CCC(CC1c1ccc(/C=C\I)cc1)N2 (stereo not given) | 3.32

Test system: Thalamus
Experiment: Drug uptake in anesthetized cynomolgus monkey brain thalamus after 215 mins postinjection
Assay type: ADME, organism-based, Macaca fascicularis
Design: unit not given here
Details: in vivo

SMILES | Drug uptake
O=C(OCC[18F])C1C2CCC(CC1c1ccc(/C=C\I)cc1)N2 (stereo not given) | 3.47

Test system: not listed separately
Experiment: Ratio of drug uptake in frontal lobe to cerebellum in anesthetized cynomolgus monkey after 75 mins postinjection
Assay type: ADME, organism-based, Macaca fascicularis
Details: in vivo, 1.25 h

SMILES | Ratio
O=C(OCC[18F])C1C2CCC(CC1c1ccc(/C=C\I)cc1)N2 (stereo not given) | 0.9

Test system: Putamen
Experiment: Drug uptake in anesthetized cynomolgus monkey brain putamen after 4.5 mins postinjection
Assay type: ADME, organism-based, Macaca fascicularis
Design: unit not given here
Details: in vivo, 0.075 h

SMILES | Drug uptake
O=C(OCC[18F])C1C2CCC(CC1c1ccc(/C=C\I)cc1)N2 (stereo not given) | 1.18

Test system: Medulla
Experiment: Drug uptake in anesthetized cynomolgus monkey brain medulla after 0.5 mins postinjection
Assay type: ADME, organism-based, Macaca fascicularis
Details: in vivo

SMILES | Drug uptake
O=C(OCC[18F])C1C2CCC(CC1c1ccc(/C=C\I)cc1)N2 (stereo not given) | 0

Test system: Midbrain
Experiment: Drug uptake in anesthetized cynomolgus monkey brain midbrain after 195 mins postinjection
Assay type: ADME, organism-based, Macaca fascicularis
Details: in vivo, 3.25 h

SMILES | Drug uptake
O=C(OCC[18F])C1C2CCC(CC1c1ccc(/C=C\I)cc1)N2 (stereo not given) | 4.56

Test system: Medulla
Experiment: Drug uptake in anesthetized cynomolgus monkey brain medulla after 55 mins postinjection
Assay type: ADME, organism-based, Macaca fascicularis
Details: in vivo

SMILES | Drug uptake
O=C(OCC[18F])C1C2CCC(CC1c1ccc(/C=C\I)cc1)N2 (stereo not given) | 3.78

Test system: not listed separately
Experiment: Drug uptake in anesthetized cynomolgus monkey brain occipital lobe after 195 mins postinjection
Assay type: ADME, organism-based, Macaca fascicularis
Details: in vivo, 3.25 h

SMILES | Drug uptake
O=C(OCC[18F])C1C2CCC(CC1c1ccc(/C=C\I)cc1)N2 (stereo not given) | 1.82

Test system: Putamen
Experiment: Drug uptake in anesthetized cynomolgus monkey brain putamen after 115 mins postinjection
Assay type: ADME, organism-based, Macaca fascicularis
Design: unit not given here
Details: in vivo

SMILES | Drug uptake
O=C(OCC[18F])C1C2CCC(CC1c1ccc(/C=C\I)cc1)N2 (stereo not given) | 4.34

Test system: not listed separately
Experiment: Drug uptake in anesthetized cynomolgus monkey brain frontal lobe after 235 mins postinjection
Assay type: ADME, organism-based, Macaca fascicularis
Details: in vivo

SMILES | Drug uptake
O=C(OCC[18F])C1C2CCC(CC1c1ccc(/C=C\I)cc1)N2 (stereo not given) | 1.51

Test system: Midbrain
Experiment: Drug uptake in anesthetized cynomolgus monkey brain midbrain after 225 mins postinjection
Assay type: ADME, organism-based, Macaca fascicularis
Details: in vivo, 3.75 h

SMILES | Drug uptake
O=C(OCC[18F])C1C2CCC(CC1c1ccc(/C=C\I)cc1)N2 (stereo not given) | 4.51
